Entries after “also recorded” stand apart in the source; their conditions may differ.
Tests used:
[1] = system: cultured mouse hippocampal HT4 cells; details: cited from earlier work
[2] = system: cultured neurons; assay: H2O2-induced oxidative insult in cultured neurons, MTT assay of neuroprotection; format: cell-based, rat; details: for effect on the neuroprotective efficacy of DHL: H2O2 insult; for % Neuroprotection: 4 h incubation, then 50 μM H2O2 30 min, MTT after 24 h, mean ± SEM
Excerpt: (§1) Primary cultures may be established following the procedures outlined by Koenig, M. L., et al., (1996) Brain Res. 730:143-149, which is herein incorporated by reference. The forebrains of fetal rat pups (embryonic day 15) are isolated and the cells are dispersed by repeated trituration in neuronal culture medium (NCM). NCM comprises a 1:1 ratio of Ham's F-12 (Biofluids, Rockville, Md.) to Basal Medium Eagle (Sigma, St. Louis, Mo.), supplemented with 0.6 g/L of dextrose, 0.35% glutamine and 1% Pen-Strep (Biofluids. Rockville, Md.). Following centrifugation at 900×g for 5 minutes, the cells are plated onto poly-L-lysine-coated 48 well plates at a density of 10^6 cells/ml. To suppress glial growth. the cultures are treated with cytosine arabinoside (10^−5 M) for 4 days. All cultures are maintained in an incubator comprising 5% CO2 at 37° C. for about 6 days to about 15 days prior to use.
Oxidative injury is assessed by using an MTT assay (Sigma, St. Louis, Mo.). About 24 h after exposure to either hemoglobin or an oxidative insult, MTT is added to each test well such that the final concentration of the dye is about 0.15 mg/ml. Plates are returned to the incubator for about 1 hr at which time unincorporated MTU is removed and the plates are allowed to air dry. The purple formazan product indicative of viable cells is then dissolved by adding about 250 μl of acidified isopropanol comprising about 95% isopropanol and about 5% 2N HCl. About 200 μl aliquots are collected and the absorbance of these aliquots are measured on an ELISA plate reader at about 540 nm. Control (untreated) wells are included in each experiment, and viability is calculated as the percentage of mean control values for each plate.
Cultured neurons were incubated with four DHL concentrations, 3.0, 10.0, 30.0, and 100.0 micromolar of DHL, with or without 10 mM SPBN for four hours. After incubation. an oxidative insult was applied by adding 50 micromolar of H2O2 for 30 minutes after which the medium was removed and replaced with Minimum Essential Medium (MEM) (Sigma. St. Louis, Mo.). After 24 hours, the colormetric MTT assay as described above was conduced to determine amount of neuroprotection.
Cultured neurons were incubated with four DHL concentrations, 3.0, 10.0, 30.0. and 100.0 micromolar of DHL, with or without 10 mM PBN for four hours. After incubation, an oxidative insult was applied by adding 50 micromolar of H2O2 for 30 minutes after which the medium was […] Minimum Essential Medium (MEM) (Sigma, St. Louis, Mo.). After 24 hours, the colormetric MTT assay as described above was conduced to determine amount of neuroprotection.

[3] = system: primary cultures of neurons derived from the forebrains of E-15 rat fetuses; assay: Hemoglobin-induced toxicity in cultured neurons, MTT viability assay; format: cell-based
Experimental: See Koenig et al., (1999) Neurosci. Abs., 25, which is herein incorporated by reference. […] […] Neuronal viability was assessed by using the calorimetric MT assay of succinate dehydrogenase activity. MTT is a calorimetric dye, 3-(4,5-dimethylthiazol-2-yl)-2,5-diphenyltetrazolium bromide, and is available from Sigma. Neuroprotection increased with increasing concentrations of DHLA.
as §1, with “To suppress glial growth. the cultures are treated with cytosine arabinoside (10^−5 M) for 4 days. All cultures are maintained in an incubator comprising 5% CO2 at 37° C. for about 6 days to about 15 days prior to use.” left out
Oxidative injury is assessed by using an MTT assay (Sigma, St. Louis, Mo.). […] About 200 μl aliquots are collected and the absorbance of these aliquots are measured on an ELISA plate reader at about 540 nm. Control (untreated) wells are included in each experiment, and viability is calculated as the percentage of mean control values for each plate.

[4] = system: rats; assay: Experimental spinal cord injury (dynorphin A injection) in rats, motor scores; format: in vivo; details: rat, about 5 micromoles DHLA intrathecally, 2 hour pretreatment and treatment after injury
Experimental: Here, about 5 micromoles of DHLA was administered intrathecally as a 2 hour pretreatment. Flaccid paralysis was acutely evident about 10 minutes after injection with dynorphin A and where there was no pretreatment with DHLA or co-treatment with DHLA. […] See Long et al., (1999) Neurosci. Abs. 25, which is herein incorporated reference.

Structure (SMILES): CN(C)CCNC(=O)CCCCC1CCSS1.Cl (centres unmarked) [LA-plus, 2-(N,N-dimethylamine) ethylamido lipoate-HCL]
- in vitro protection against glutamate-induced loss of GSH, formation of peroxide and neurotoxicity, compared with ALA [1]: better

Structure (SMILES): CC(C)(C)[N+]([O-])=Cc1ccccc1 [PBN, alpha-Phenyl-N-tert-butylnitrone, reference compound]
- effect on the neuroprotective efficacy of DHL ([2]; 10 mM PBN co-incubated with 3-100 μM DHL): significantly increased

Structure (SMILES): O=C(O)CCCC[C@@H](S)CCS (racemic) [DHL, dihydrolipoic acid]
- neuroprotection against hemoglobin-induced toxicity (neuronal viability, MTT) ([3]; DHLA co-applied with hemoglobin (no pre-incubation)): no evidence of neuroprotection
- neuroprotection against hemoglobin-induced toxicity (neuronal viability, MTT) ([3]; pre-incubation about 4 hours, about 0.3 to about 10 micromolar DHLA, then about 10 micromoles hemoglobin for about 24 hours): protective in a concentration-related manner
- % Neuroprotection ([2]; DHL 3 μM, SPBN 0 mM): 1.31 ± 5.23%
- % Neuroprotection ([2]; DHL 10 μM, SPBN 0 mM): −3.68 ± 5.14%
- % Neuroprotection ([2]; DHL 30 μM, SPBN 0 mM): 7.04 ± 7.38%
- % Neuroprotection ([2]; DHL 100 μM, SPBN 0 mM): 28.48 ± 5.83%
- % Neuroprotection ([2]; Table 2 experiment: DHL 3 μM, PBN 0 mM): −1.3 ± 7.2%
- % Neuroprotection ([2]; Table 2 experiment: DHL 10 μM, PBN 0 mM): 22.2 ± 13.6%
- % Neuroprotection ([2]; Table 2 experiment: DHL 30 μM, PBN 0 mM): 22.1 ± 9.7%
- % Neuroprotection ([2]; Table 2 experiment: DHL 100 μM, PBN 0 mM): 36.9 ± 9.6%
- protection against experimental spinal cord injury (motor scores) [4]: protective; also recorded: improve motor scores

Structure (SMILES): CC(C)(C)[N+]([O-])=Cc1ccccc1S(=O)(=O)O [SPBN, N-tert-Butyl-α-(2-sulfophenyl)nitrone, reference compound]
- effect on the neuroprotective efficacy of DHL ([2]; 10 mM SPBN co-incubated with 3-100 μM DHL): significantly increased
